Experiments:
Type in all cases: physicochemical
[1] = Saturation / dissolution temperature of contrast agent solution in water
Description: The injection solution of Compound I is highly supersaturated. The nucleation (precipitation) in the injection solution at storage conditions is strongly undesirable. The physical stability of the solution, i.e. prevention of the nucleation for a certain time at storage conditions, may be improved substantially by heat treatment of the solution well above its saturation temperature for a sufficiently long period of time. A solution in which the concentration of the solute (API) exceeds the equilibrium solute concentration at a given temperature is said to be supersaturated. […] Such solutions are denoted as supersaturated. Saturation temperature is the temperature where all solid API (amorphous and crystalline) apparently dissolves completely. As the solubility of Compound I decreases with decreasing temperature, the supersaturation increases.
For a compound or contrast agent with a defined crystalline state (single polymorph) at one side, and a solvent including dissolved admixtures on the other, the concentration of the agent in the solution in equilibrium with the crystalline state is called solubility. At this concentration the activity of the agent is equal in both phases. A system out of the equilibrium stage tends to change the solution concentration towards the equilibrium (solubility), e.g. dissolve crystals when under-saturated, or crystallize out compound when supersaturated. Normally, the solubility changes, usually increases, with temperature. For the purpose, we define the temperature at which the crystal solubility is equal to the concentration in the particular solution as “dissolution temperature”. When a solution contains crystals, the crystals dissolve at temperatures above the “dissolution temperature”, remaining a crystal free solution. When the amount of the crystals is small, the concentration increase by dissolution may be neglected.

[2] = Inorganic iodide in X-ray composition prepared by the process of the invention (400 litre batch); conditions: 320 mg I/ml
Procedure: 261 kg of Compound I was dissolved in 250 litres of water for injection (WFI) and added 44 g Na2Ca-EDTA.2H2O in the mixing tank (A). HCl 5M was used to set the solution to pH 3. Under these conditions, to the composition underwent heating for 40 minutes at 122° C. […] This solution was cooled to approximately 50° C. and filtered through a 10 kDa ultrafilter. The remaining WFI to yield a solution of 320 mg I/ml of compound I was used to rinse the ultrafilter by dilution of the concentrated retentate. The filtered solution was dispensed and autoclaved for 20 minutes at 121° C. After autoclaving, the concentration of inorganic iodide was 10 μg/ml, which is approximately a fifth of the concentration resulting from a conventional production not using the process of the invention.

[3] = Iodide level after steam heat sterilisation, conventional heating regime; conditions: 134° C. for 45 minutes, no reduced pH
Procedure: During the development of new iodinated X-ray contrast agents, several heating regimes have been tested to find the parameters to be used for the secondary productions. Among these are end heat steam sterilization at 134° C. or 121° C. for 45 minutes or more, pre-heating in the mixing tank above the dissolution temperature (e.g. 110-111° C./330 mg I/ml) using different regimes followed by end heat steam sterilization etc. Although some of these heating regimes might be capable of providing a physically stable solution, they may cause high levels of free iodide due to degeneration of the iodinated X-ray contrast agent (Scheme 1). […] This is above the acceptable level.

[4] = Stability of Compound I at different pH: inorganic iodide and pH after autoclaving; conditions: 320 mg I/ml, 121° C. 120 minutes or 134° C. 60 minutes
Procedure: Experiments were performed to investigate the level of inorganic iodide generated as a result of degeneration of Compound I as a result of a pH and heating regime. Reference is made to FIGS. 1 and 2. The heat load was controlled by using a BIER-vessel for the steam heat sterilisation. Formulated Compound I (drug product, DP, 320 mg I/ml) was added 25% HCl to obtain 4 series of 6 vials with a pH of 2.0, 3.1, 4.0 and 7.7, respectively.
DP (10 ml) was filled in 10 ml vials. 3 vials from each series were autoclaved at 121° C. for 120 minutes and the remaining 3 vials were autoclaved at 134° C. for 60 minutes. The samples, including 2 reference samples, were subjected to pH and iodide analyses.

[5] = Solubility in water (comparison)

SMILES	saturation temperature ([1]; solution of about 320 mg I/ml in water)	inorganic iodide concentration relative to conventional production not using the process ([2]; after autoclaving)	concentration of inorganic iodide after autoclaving ([2]; heated 40 minutes at 122° C. at pH 3, then pH 7.3, autoclaved 20 minutes at 121° C.)	iodide levels after steam heat sterilisation [3]	change in pH after autoclaving ([4]; start pH in the range 2-4)	iodide levels after autoclaving ([4]; start pH in the range 2-4)	change in pH after autoclaving ([4]; start pH of 7.7)	iodide levels after autoclaving ([4]; start pH of 7.7)	dissolution temperature ([1]; at 330 mg I/ml)	dissolution temperature ([1]; water for injection as solvent, concentration range 270-380 mg I/ml)	solubility in water compared with iodixanol [5]
CC(=O)N(CC(O)CN(C(C)=O)c1c(I)c(C(=O)NCC(O)CO)c(I)c(C(=O)NCC(O)CO)c1I)c1c(I)c(C(=O)NCC(O)CO)c(I)c(C(=O)NCC(O)CO)c1I (centres unmarked) [iodixanol, reference compound]	approximately 92 °C	–	–	–	–	–	–	–	–	–	–
O=CN(CC(O)CN(C=O)c1c(I)c(C(=O)NCC(O)CO)c(I)c(C(=O)NCC(O)CO)c1I)c1c(I)c(C(=O)NCC(O)CO)c(I)c(C(=O)NCC(O)CO)c1I (centres unmarked) [Compound I, 5-[formyl-[3-[formyl-[3,5-bis(2,3-dihydroxypropylcarbamoyl)-2,4,6-triiodophenyl]amino]-2-hydroxypropyl]amino]-N,N′-bis(2,3-dihydroxypropyl)-2,4,6-triiodobenzene-1,3-dicarboxamide]	–	approximately a fifth	10000 ng/mL	75-85 μg I/ml	no significant change in pH	only a minor increase in iodide levels	corresponding drop in pH	high iodide levels	110-111 °C	~110 °C	lower solubility in water than iodixanol

— US11185598B2, “Preparation of stabilised x-ray diagnostic composition” (GE HEALTHCARE AS, priority 2010, dated 2021)
